We go through 11 compounds from patent US20110230481A2, “DERIVATIVES OF TETRABROMOBENZIMIDAZOLE, A PROCESS FOR THE PREPARATION THEREOF, A PHARMACEUTICAL COMPOSITION COMPRISING THE SAME, A METHOD OF USING THE SAME, A METHOD FOR MODULATING OR REGULATING SERINE/THREONINE KINASES, AND SERINE/THREONINE KINASES MODULATING AGENT” (SELVITA S.A., priority 2009, published 2011).

In general, pIC50 refers to −log10 of the IC50, conventionally taken in molar units. One may read the IC50 as the point on the concentration scale where inhibition reaches its midpoint. A word on the solubility: it is the concentration that dissolves in the medium under given conditions. Read a low solubility as a poorly soluble substance.

pEC50, pIC50: −log10 of the molar value. Values after ≈ are worked out from the molar mass of the structure shown. Where two headings read alike, the source gives them in different places.

The target of data set [1] is CK2α (Homo sapiens, UniProt P68400). Description: Radiometric kinase assay (HotSpot). The note with it: for IC50: read-out: Inhibitory activity (IC50 in nM) in radiometric cell free assay, CK2α, ATP 1 μM, peptide 20 μM.
Description: (§3) Kinase assays were performed at Reaction Biology Corporation (www.reactionbiology.com, Malvern Pa.) using the “HotSpot” assay platform. This assay platform is based on a radiometric filtration binding assay and is considered as the “gold standard” to which non-radiometric methods are compared. In this assay format, the kinase reaction is performed in the presence of 32 P-γ-ATP or 33 P-γ-ATP, followed by binding of the final radioisotope labeled peptide product to filters after which unreacted phosphate is washed away and the levels of phosphorylated peptide are measured.
In data set [2] the target is T1, CLK1 (Homo sapiens, UniProt P49759). Description: Radiometric kinase assay (HotSpot).
Description: as §3
For data set [3], the system named is neoplastic cell lines. Put plainly: MTS cytotoxicity, panel of cancer cell lines. The data set is classed as cell-based, human. The following applies: majority of the tested cancer cell lines; read-out: general cytotoxic activity (compound concentration that results in death of 50% of the cell). On the procedure:
(§1) Ten thousand cells of human chronic myelocytic leukemia K562 were inoculated into each well of a 96-well microplate (manufactured by Corning Corp.) using Iscove's MDM medium (culture medium) containing 10% fetal calf serum (FCS). The same day, a dimethyl sulfoxide (DMSO) solution of each test compound prepared in a concentration of 10 mmol/L was further diluted with DMSO to the desired concentrations (0.1, 0.5, 1, 2.5, 5 and 10 micromol/L), and the diluted solution was added to each well. The individual wells were further cultured in 5% carbon dioxide at 37° C. for 72 hours. After completion of the culture, 10 μl MTS (3-(4,5-Dimethyl-2-thiazolyl)-5-(carboxymethoxyphenyl)-2-(4-sulfophenyl)-2H-tetrazolium, inner salt assay (CellTiter96® AQueous One Solution Cell Proliferation Assay, Promega) was added to each well, and culturing was performed in 5% carbon dioxide at 37° C. for 2 hours. Using a microplate spectrophotometer (Synergy 2 multi-mode microplate reader (BioTek)), the absorbance of each well was measured at 490 nm. The value for cells not incorporated with a test compound was designated as 100%. By comparing these values with the absorbance difference obtained at the well in which each test compound was added, the cell viability (% viability) after treatment with the test compound was calculated.
as §1, with “Two” for “Ten”, “prostate adenocarcinoma PC3” for “chronic myelocytic leukemia K562”, “Corp.), and” for “Corp.)”, “F12K (Ham's F12:[…] 1:1)” for “Iscove's MDM”, “The same day, a dimethyl sulfoxide (DMSO) solution of each test compound prepared in a concentration of 10 mmol/L was further diluted with DMSO to the desired concentrations (0.1, 0.5, 1, 2.5, 5 and 10 micromol/L), and the diluted solution was added to each well. The individual wells were further cultured in 5% carbon dioxide at 37° C. for 72 hours.” left out
Two thousand cells of human prostate carcinoma DU145 were inoculated into each well of a 96-well microplate (manufactured by Corning Corp.), and using DMEM medium (culture medium) containing 10% fetal calf serum (FCS). […] After completion of the culture, 10 μl MTS (3-(4,5-Dimethyl-2-thiazolyl)-5-(carboxymethoxyphenyl)-2-(4-sulfophenyl)-2H-tetrazolium, innersalt assay (CellTiter96® AQueous One Solution Cell Proliferation Assay, Promega) was added to each well, and culturing was performed in 5% carbon dioxide at 37° C. for 2 hours. Using a microplate spectrophotometer (Synergy 2 multi-mode microplate reader (BioTek)), the absorbance of each well was measured at 490 nm. The value for cells not incorporated with a test compound was designated as 100%. By comparing these values with the absorbance difference obtained at the well in which each test compound was added, the cell viability (% viability) after treatment with the test compound was calculated. […]

The subject of data set [4] is human breast adenocarcinoma MCF7 cells. Put plainly: Growth inhibition test (MTS). The data set is classed as cell-based. The following applies: MCF-7; 72 hours. The protocol: as §1, with “Two” for “Ten”, “breast adenocarcinoma MCF7” for “chronic myelocytic leukemia K562”, “Corp.), and” for “Corp.)”, “DMEM” for “Iscove's MDM”
A short description of data set [5]: Solubility in pH 7.4. The note with it: phosphate buffer.
Description: Compound stock solutions were prepared in DMSO to final concentrations of 1000 mM. For each compound studied, 12 solutions were prepared to cover concentrations from 0.001 to 1 mM. As a solvent 0.2 mM phosphate buffer (pH 7.4) was used. The final concentration of DMSO in the solutions was 1% (v/v). The solutions were left mixing for 24 hours at 37° C., 350 rpm and following incubation centrifuged for 5 minutes at 14500 rpm. The samples were then analyzed by RP HPLC using a C18 column and 0.2% solution of formic acid in water/acetonitrile mobile phase. […] The solubility was determined as the point as the point at which the concentration curve reaches plateau.
Data set [6] addresses T1, CLK1. Description: KINOMEscan Max. The format is binding. On the set-up: DNA tag (qPCR read-out); purchased Ambit Kinomescan. The protocol: (§2) Kinase panel profiling was performed at Ambit Kinomescan (http://www.ambitbio.com/technology/) using the “KINOMEscan™ Max” assay platform, a high-throughput method for screening small molecule compounds against large numbers of human kinases. KINOMEscan™ is based on a competition binding assay that quantitatively measures the ability of a compound to compete with an immobilized, active-site directed ligand. The assay is performed by combining three components: DNA-tagged kinase; immobilized ligand; and a test compound. The ability of the test compound to compete with the immobilized ligand is measured via quantitative PCR of the DNA tag. For a description of Ambit's assay protocol, see Fabian et al. A small molecule-kinase interaction map for clinical kinase inhibitors. Nat. Biotechnol. 23, 329-336 (2005).

Data set [7] deals with PIM1 (Homo sapiens, UniProt P11309). Put plainly: KINOMEscan Max. The data set is classed as binding. On the set-up: DNA tag (qPCR read-out); purchased Ambit Kinomescan. The protocol:
as §2

T1 sequence (P49759 whole entry): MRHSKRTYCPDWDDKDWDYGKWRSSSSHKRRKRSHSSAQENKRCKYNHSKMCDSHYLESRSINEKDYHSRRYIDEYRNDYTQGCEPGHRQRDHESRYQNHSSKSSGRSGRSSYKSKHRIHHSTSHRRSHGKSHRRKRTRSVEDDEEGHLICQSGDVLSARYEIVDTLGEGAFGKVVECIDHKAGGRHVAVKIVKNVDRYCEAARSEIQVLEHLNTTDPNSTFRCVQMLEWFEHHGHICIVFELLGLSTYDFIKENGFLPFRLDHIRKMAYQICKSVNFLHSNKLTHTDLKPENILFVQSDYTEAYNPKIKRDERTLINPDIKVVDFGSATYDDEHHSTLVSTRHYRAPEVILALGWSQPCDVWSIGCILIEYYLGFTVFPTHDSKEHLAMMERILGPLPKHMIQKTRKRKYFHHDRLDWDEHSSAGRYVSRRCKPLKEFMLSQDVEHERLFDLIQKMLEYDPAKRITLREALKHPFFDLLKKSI
Sequence of CK2α (P68400 whole entry): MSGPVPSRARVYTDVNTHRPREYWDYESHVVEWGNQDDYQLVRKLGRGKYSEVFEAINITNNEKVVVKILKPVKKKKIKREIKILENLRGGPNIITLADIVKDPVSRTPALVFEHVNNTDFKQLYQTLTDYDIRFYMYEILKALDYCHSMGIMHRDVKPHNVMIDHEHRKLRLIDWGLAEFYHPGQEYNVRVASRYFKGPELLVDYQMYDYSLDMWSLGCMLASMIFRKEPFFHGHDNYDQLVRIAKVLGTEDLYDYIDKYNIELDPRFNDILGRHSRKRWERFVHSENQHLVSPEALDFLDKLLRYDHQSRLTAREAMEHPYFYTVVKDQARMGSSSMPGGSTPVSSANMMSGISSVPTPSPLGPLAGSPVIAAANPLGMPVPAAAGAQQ
Sequence of PIM1 (P11309 whole entry): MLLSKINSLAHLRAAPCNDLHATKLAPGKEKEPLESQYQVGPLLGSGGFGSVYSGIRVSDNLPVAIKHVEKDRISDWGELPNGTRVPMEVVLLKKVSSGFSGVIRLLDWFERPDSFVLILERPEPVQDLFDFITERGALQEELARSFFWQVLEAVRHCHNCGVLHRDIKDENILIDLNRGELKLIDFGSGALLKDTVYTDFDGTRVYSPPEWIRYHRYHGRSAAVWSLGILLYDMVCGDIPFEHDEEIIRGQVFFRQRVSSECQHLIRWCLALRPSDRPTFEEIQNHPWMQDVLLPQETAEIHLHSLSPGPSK

As for `Brc1c(Br)c(Br)c2[nH]c(NCCN3CCCCC3)nc2c1Br` [Compound 13, 4,5,6,7-tetrabromo-N-(2-(piperidin-1-yl)ethyl)-1H-benzo[d]imidazol-2-amine], the negative-log IC50 (pIC50) in data set [1] was 5.65; in data set [2] it was 6.23.

In the case of `CN(C)c1nc2c(Br)c(Br)c(Br)c(Br)c2n1CC(=O)O` [Compound K66, reference compound], the pEC50 in data set [3] was under 5.00. In addition, the IC50 in data set [1] worked out at 206 nM.

As to `Brc1c(Br)c(Br)c2c(Br)n[nH]c2c1Br` [Compound K64, reference compound], in data set [3], the pEC50 was under 5.00. The IC50 in data set [1] turned out to be 637 nM.

For `Brc1c(Br)c(Br)c2[nH]c(NCCN3CCOCC3)nc2c1Br` [Compound 16, 4,5,6,7-tetrabromo-N-(2-morpholinoethyl)-1H-benzo[d]imidazol-2-amine], the “Cytotoxicity in MTS assay (ED50)” value in data set [4] was over 10 µM. The same compound returned a solubility at 24 h in data set [5] of 23 µM (≈ 12.9 µg/mL). The negative-log IC50 (pIC50) in data set [1] is 5.16.

On to `Brc1c(Br)c(Br)c2[nH]cnc2c1Br` [TBI, reference compound], for which, in data set [3], the pEC50 was under 5.00.

As for `Brc1c(Br)c(Br)c2[nH]nnc2c1Br` [TBB, reference compound], the pEC50 in data set [3] is under 5.00.

With `CN(C)c1nc2c(Br)c(Br)c(Br)c(Br)c2[nH]1` [DMAT, reference compound], the “Cytotoxicity in MTS assay (ED50)” value in data set [4] was over 10 µM. In addition, in data set [3], the pEC50 is under 5.00. Besides, the IC50 in data set [2] (read-out: Inhibitory activity (IC50 in nM) in radiometric cell free assay, CLK1, ATP 1 μM, Myelin Basic Protein 10 μM) amounted to 211 nM.

Regarding `NCCCNc1nc2c(Br)c(Br)c(Br)c(Br)c2[nH]1` [Compound 11, N-(3-aminopropyl)-4,5,6,7-tetrabromo-1H-benzo[d]imidazol-2-amine], the “Cytotoxicity in MTS assay (ED50)” value in data set [4] turned out to be 5.34 µM. This compound also had a solubility at 24 h in data set [5] of 370 µM (≈ 187 µg/mL). The pIC50 in data set [1] was 5.99; in data set [2] it was 6.75. Also, the remaining binding at 1 µM in data set [6] was 5.1%; in data set [7] it was 4%.

With `CN1CCN(c2nc3c(Br)c(Br)c(Br)c(Br)c3[nH]2)CC1` [Compound 21, 4,5,6,7-tetrabromo-2-(4-methylpiperazin-1-yl)-1H-benzo[d]imidazole], the “Cytotoxicity in MTS assay (ED50)” value in data set [4] is over 10 µM. Also, the solubility at 24 h in data set [5] was under 10 µM. This compound had a pIC50 in data set [1] of 5.74.

As to `Brc1c(Br)c(Br)c2[nH]c(N3CCNCC3)nc2c1Br` [Compound 20, 4,5,6,7-tetrabromo-2-(piperazin-1-yl)-1H-benzo[d]imidazole], in data set [1], the pIC50 was 6.88.

For `Brc1c(Br)c(Br)c2[nH]c(NCCN3CCCC3)nc2c1Br` [Compound 14, 4,5,6,7-tetrabromo-N-(2-(pyrrolidin-1-yl)ethyl)-1H-benzo[d]imidazol-2-amine], in data set [5], the solubility at 24 h worked out at 31 µM (≈ 16.9 µg/mL). The pIC50 in data set [1] is 6.08.
